Where two headings read alike, the source gives them in different places.
Tests used:
[1] = biological target: T1, WEE1 (Homo sapiens, UniProt P30291+Q96SW2); assay: WEE1-ePL degradation assay (LentiX-WEE1-ePL-GSPT1-ND cells, InCELL Hunter luminescence, 4 h); assay type: cell-based; settings: 293T-LentiX WEE1-ePL cells; for DC50: read-out: 293T-LentiX WEE1-ePL Degradation 4 hr (EC50)
T1 construct: C-terminal ePL-tagged (DiscoverX, Fremont, CA) full-length WEE1 expression construct; expressed in transfected cells; host or cells: LentiX-HEK293T (Invitrogen), lentiviral transduction; co-expressing GSPT1-GN (G576N, lacking the first 158 amino acids)
Outline: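 HEK293T cells stably expressing C-terminal ePL-tagged full-length WEE1, 2500 cells/well, treated 4 h at 37° C with a 10-point 3-fold series from 1 or 10 uM. Remaining WEE1-ePL read by InCELL Hunter luminescence after 30 min. EC50 came from a four-parameter logistic fit, with Ymax set from DMSO control.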

[2] = system: MKN45 cells; assay: MKN45 cell proliferation assay (Cell-Titer-Glo, 120 h); assay type: cell-based; settings: for EC50: Homo sapiens, MKN-45, 120 h, Cell-Titer-Glo, read-out: MKN45 Cell Prolif. 120 hr (EC50); for MKN45 Cell Prolif. 120 hr (Ymin-Obs): minimal percent of DMSO control observed in the concentrations tested
Outline: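 Cells seeded at 400/well onto pre-printed 10-point half-log dilutions (top 1 or 10 uM, 0.1% DMSO final), in triplicate, and grown 120 h at 37 C. Viability by Cell-Titer-Glo luminescence, blank-subtracted and normalised to DMSO; EC50 from four-parameter logistic fit, with observed minimal % of control recorded as Ymin-obs.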

[3] = lower limit of the fit (0 = luciferase inhibitor, Ymax = DMSO control)
[4] = lower limit of the fit (Ymin=0 luciferase inhibitor, Ymax DMSO control)

Row | SMILES | 293T-LentiX WEE1-ePL Degradation 4 hr (Ymin) [1, 3] | DC50 [1] | EC50 ([2]; growth inhibition) | 293T-LentiX WEE1-ePL Degradation 4 hr (Ymin) [1, 4] | EC50 [2] | MKN45 Cell Prolif. 120 hr (Ymin-Obs) [2]
1 | O=C1CCC(N2Cc3cc(O[C@H]4CCN(Cc5ccc6cnccc6c5)C4)ccc3C2=O)C(=O)N1 (stereo partly drawn) [3-(5-{[(3S)-1-[(isoquinolin-6-yl)methyl]pyrrolidin-3-yl]oxy}-1-oxo-2,3-dihydro-1H-isoindol-2-yl)piperidine-2,6-dione] | 25.71 | 17 nM | 52.7 nM |  |  | 15.77
2 | O=C1CCC(N2Cc3cc(O[C@H]4CCN(Cc5cnc6cccc(F)c6c5)C4)ccc3C2=O)C(=O)N1 (stereo partly drawn) [3-(5-{[(3S)-1-[(5-fluoroquinolin-3-yl)methyl]pyrrolidin-3-yl]oxy}-1-oxo-2,3-dihydro-1H-isoindol-2-yl)piperidine-2,6-dione] | 31.52 | 12 nM | 309 nM |  |  | 35.14
3 | COC[C@H]1CC[C@@H](c2ccc3cc(CN4CC[C@H](Oc5ccc6c(c5)CN(C5CCC(=O)NC5=O)C6=O)C4)ccc3n2)C1 (stereo partly drawn) [3-(5-{[(3S)-1-({2-[(1R,3S)-3-(methoxymethyl)cyclopentyl]quinolin-6-yl}methyl)pyrrolidin-3-yl]oxy}-1-oxo-2,3-dihydro-1H-isoindol-2-yl)piperidine-2,6-dione] |  | 3.12 nM |  | 34.11 | 3.09 nM | 8.888
4 | CC1(C)CCN(c2ccc3cc(CN4CC[C@H](Oc5ccc6c(c5)CN(C5CCC(=O)NC5=O)C6=O)C4)ccc3n2)C1=O (stereo partly drawn) [3-(5-{[(3S)-1-{[2-(3,3-dimethyl-2-oxopyrrolidin-1-yl)quinolin-6-yl]methyl}pyrrolidin-3-yl]oxy}-1-oxo-2,3-dihydro-1H-isoindol-2-yl)piperidine-2,6-dione] | 29.67 | 7.36 nM | 3.88 nM |  |  | 7.37
5 | C[C@]1(Oc2ccc3c(c2)CN(C2CCC(=O)NC2=O)C3=O)CCN(Cc2ccc3nc(C#N)ccc3c2)C1 (stereo partly drawn) [6-{[(3S)-3-{[2-(2,6-dioxopiperidin-3-yl)-1-oxo-2,3-dihydro-1H-isoindol-5-yl]oxy}-3-methylpyrrolidin-1-yl]methyl}quinoline-2-carbonitrile] | 94 |  | > 10000 nM |  |  | 80.88
6 | O=C1CCC(N2Cc3cc(O[C@H]4CCN(Cc5cc6ccccc6cn5)C4)ccc3C2=O)C(=O)N1 (stereo partly drawn) [3-(5-{[(3S)-1-[(isoquinolin-3-yl)methyl]pyrrolidin-3-yl]oxy}-1-oxo-2,3-dihydro-1H-isoindol-2-yl)piperidine-2,6-dione] | 30.345 | 4.05 nM | 44.1 nM |  |  | 13.47
7 | Cc1cccc2cnc(CN3CC[C@H](Oc4ccc5c(c4)CN(C4CCC(=O)NC4=O)C5=O)C3)cc12 (stereo partly drawn) [3-(5-{[(3S)-1-[(5-methylisoquinolin-3-yl)methyl]pyrrolidin-3-yl]oxy}-1-oxo-2,3-dihydro-1H-isoindol-2-yl)piperidine-2,6-dione] | 31.91 | 4.62 nM | 86.1 nM |  |  | 19.01
8 | O=C1CCC(N2Cc3cc(O[C@H]4CCN(Cc5cc6cc([C@@H]7CCOC7)ccc6cn5)C4)ccc3C2=O)C(=O)N1 (stereo partly drawn) [3-(1-oxo-5-{[(3S)-1-({6-[(3S)-oxolan-3-yl]isoquinolin-3-yl}methyl)pyrrolidin-3-yl]oxy}-2,3-dihydro-1H-isoindol-2-yl)piperidine-2,6-dione] | 28 | 5.38 nM | 12.9 nM |  |  | 5.87
9 | O=C1CCC(N2Cc3cc(O[C@H]4CCN(Cc5ccc6nc(N7CC8(COC8)C7)ccc6c5)C4)ccc3C2=O)C(=O)N1 (stereo partly drawn) [3-(5-{[(3S)-1-[(2-{2-oxa-6-azaspiro[3.3]heptan-6-yl}quinolin-6-yl)methyl]pyrrolidin-3-yl]oxy}-1-oxo-2,3-dihydro-1H-isoindol-2-yl)piperidine-2,6-dione] | 41.5 | 7.76 nM | 10.7 nM |  |  | 14.91
10 | O=C1CCC(N2Cc3cc(O[C@H]4CCN(Cc5ccc6nc(N7CCCC7=O)ccc6c5)C4)ccc3C2=O)C(=O)N1 (stereo partly drawn) [3-(1-oxo-5-{[(3S)-1-{[2-(2-oxopyrrolidin-1-yl)quinolin-6-yl]methyl}pyrrolidin-3-yl]oxy}-2,3-dihydro-1H-isoindol-2-yl)piperidine-2,6-dione] | 31 | 1.83 nM | 7.19 nM |  |  | 10.36
11 | O=C1CCC(N2Cc3cc(O[C@H]4CCN(Cc5ccc6nccnc6c5)C4)ccc3C2=O)C(=O)N1 (stereo partly drawn) [3-(1-oxo-5-{[(3S)-1-[(quinoxalin-6-yl)methyl]pyrrolidin-3-yl]oxy}-2,3-dihydro-1H-isoindol-2-yl)piperidine-2,6-dione] | 43 | 14.2 nM | 879 nM |  |  | 70.03
12 | O=C1CCC(N2Cc3cc(O[C@H]4CCN(Cc5ccc6nc(N7[C@@H]8COC[C@H]7C8)ccc6c5)C4)ccc3C2=O)C(=O)N1 (stereo partly drawn) [3-(5-{[(3S)-1-({2-[(1R,5S)-3-oxa-6-azabicyclo[3.1.1]heptan-6-yl]quinolin-6-yl}methyl)pyrrolidin-3-yl]oxy}-1-oxo-2,3-dihydro-1H-isoindol-2-yl)piperidine-2,6-dione] | 37 | 8.62 nM | 11.2 nM |  |  | 9.645
13 | CNc1cnc2ccc(CN3CC[C@H](Oc4ccc5c(c4)CN(C4CCC(=O)NC4=O)C5=O)C3)cc2c1 (stereo partly drawn) [3-(5-{[(3S)-1-{[3-(methylamino)quinolin-6-yl]methyl}pyrrolidin-3-yl]oxy}-1-oxo-2,3-dihydro-1H-isoindol-2-yl)piperidine-2,6-dione] | 34 | 18.1 nM | 204 nM |  |  | 16.86

Further lines, with some results ahead:

Row | 293T-LentiX WEE1-ePL Degradation 4 hr (Ymin) [1, 3] | DC50 [1] | EC50 ([2]; growth inhibition) | 293T-LentiX WEE1-ePL Degradation 4 hr (Ymin) [1, 4] | EC50 [2] | SMILES | MKN45 Cell Prolif. 120 hr (Ymin-Obs) [2]
14 |  | 14.7 nM |  | 36.02 | 15.2 nM | O=C1CC[C@H](N2Cc3cc(O[C@H]4CCN(Cc5cc6cnc(N7CCOCC7)nc6cc5F)C4)ccc3C2=O)C(=O)N1 [(3S)-3-(5-{[(3S)-1-{[7-fluoro-2-(morpholin-4-yl)quinazolin-6-yl]methyl}pyrrolidin-3-yl]oxy}-1-oxo-2,3-dihydro-1H-isoindol-2-yl)piperidine-2,6-dione] | 10.84
15 | 26.52 | 7.42 nM | 31.4 nM |  |  | O=C1CC[C@H](N2Cc3cc(O[C@H]4CCN(Cc5ccc6ncccc6c5)C4)ccc3C2=O)C(=O)N1 [(3S)-3-(1-oxo-5-{[(3S)-1-[(quinolin-6-yl)methyl]pyrrolidin-3-yl]oxy}-2,3-dihydro-1H-isoindol-2-yl)piperidine-2,6-dione] | 12.265
16 | 43.82 | 46.9 nM | > 10000 nM |  |  | O=C1CCC(N2Cc3cc(O[C@H]4CCN(Cc5cnc6ccccc6n5)C4)ccc3C2=O)C(=O)N1 (stereo partly drawn) [3-(1-oxo-5-{[(3S)-1-[(quinoxalin-2-yl)methyl]pyrrolidin-3-yl]oxy}-2,3-dihydro-1H-isoindol-2-yl)piperidine-2,6-dione] | 64.16
17 | 36 | 2.3 nM | 6.82 nM |  |  | COC1CN(c2ccc3cc(CN4CC[C@H](Oc5ccc6c(c5)CN(C5CCC(=O)NC5=O)C6=O)C4)ccc3n2)C1 (stereo partly drawn) [3-(5-{[(3S)-1-{[2-(3-methoxyazetidin-1-yl)quinolin-6-yl]methyl}pyrrolidin-3-yl]oxy}-1-oxo-2,3-dihydro-1H-isoindol-2-yl)piperidine-2,6-dione] | 11.6
18 | 39.87 | 29.3 nM | 257 nM |  |  | O=C1CCC(N2Cc3cc(O[C@H]4CCN(Cc5cc6ccccc6nc5C(F)(F)F)C4)ccc3C2=O)C(=O)N1 (stereo partly drawn) [3-(1-oxo-5-{[(3S)-1-{[2-(trifluoromethyl)quinolin-3-yl]methyl}pyrrolidin-3-yl]oxy}-2,3-dihydro-1H-isoindol-2-yl)piperidine-2,6-dione] | 73.03
19 |  | 1.95 nM |  | 33.96 | 3.67 nM | C[C@@H]1CN(Cc2ccc3nc([C@@H]4CCOC4)ccc3c2)C[C@H]1Oc1ccc2c(c1)CN(C1CCC(=O)NC1=O)C2=O (stereo partly drawn) [3-(5-{[(3S,4R)-4-methyl-1-({2-[(3S)-oxolan-3-yl]quinolin-6-yl}methyl)pyrrolidin-3-yl]oxy}-1-oxo-2,3-dihydro-1H-isoindol-2-yl)piperidine-2,6-dione] | 10.01
20 | 29.32 | 9.69 nM | 29.1 nM |  |  | O=C1CCC(N2Cc3cc(O[C@@H]4CN(Cc5ccc6nc([C@@H]7CCOC7)ccc6c5)C[C@H]4F)ccc3C2=O)C(=O)N1 (stereo partly drawn) [3-(5-{[(3R,4R)-4-fluoro-1-({2-[(3S)-oxolan-3-yl]quinolin-6-yl}methyl)pyrrolidin-3-yl]oxy}-1-oxo-2,3-dihydro-1H-isoindol-2-yl)piperidine-2,6-dione] | 20.1

Source: patent US20240067632A1, “WEE1 Degrading Compounds and Uses Thereof” (Bristol-Myers Squibb Company, priority 2022, published 2024)
